Results taken from patent publication US7803377B2, “Anti-DLL4 antibodies and methods using same” (Genentech, Inc., priority 2006, dated 2010).

Legend:
[1] = biological target: Jag1 (Homo sapiens, UniProt P78504); experiment: FACS analysis of transiently transfected 293 cells; type: binding; set-up: transiently transfected with vector, full length DLL4, Jag1 or DLL1; expressed in transfected cells; host or cells: 293 cells, transient; details: Jag1 transfected 293 cells; antibody 2 μg/ml
Text: Expression of Jag1 and DLL1 was confirmed by the binding of recombinant rat Notch1-Fc (rrNotch1-Fc, middle panel) and recombinant rat Notch2-Fc (rrNotch2-Fc, bottom panel), respectively.

[2] = test system: mouse lymphoma EL4 cells; experiment: Tumor model EL4; type: in vivo; details: 5 mg/kg, IP, twice weekly after establishment of the tumors
Description: (§1) Tumor models. Beige nude female mice of 8- to 10-week-old were used. To obtain subcutaneous tumors, mice were injected with 0.1 ml cell suspension containing 50% matrigel (BD Bioscience) into the right posterior flank. 5×10^6 human colon cancer HM7 cells, 10×10^6 human colon carcinoma Colo205 cells, 10×10^6 human lung carcinoma Calu6 cells, 10×10^6 human lung carcinoma MV-522 cells, 10×10^6 mouse leukemia WEHI-3 cells, 10×10^6 mouse lymphoma EL4 cells, 10×10^6 human ovarian cancer SK-OV-3 X1 cells, 10×06 mouse lung cancer LL2 cells, 10×10^6 leukemia/lymphoma EL4 cells, or 10×10^6 non-small lung cancer H1299 cells were injected into each mouse. For human melanoma MDA-MB-435 model, mice were injected into the mammary fat pad with 0.1 ml cell (5×10^6) suspension containing 50% matrigel. […] For the following tumor models, each test mouse received a subcutaneous tumor fragment (1 mm^3) implanted in the right flank: non-small lung cancer SKMES-1, human breast cancer MX-1, human colorectal cancer SW620 and human adenocarcinoma LS174T. The tumor growth was quantitated by caliper measurements. Tumor volume (mm^3) was determined by measuring the length (l) and width (w) and calculating the volume (V=lw2/2). 10 to 15 animals were included in each group. Statistical comparison of treatment groups was performed using two-tailed Student's t-test. […]

[3] = test system: retinal vasculature; experiment: Mouse neonatal retina study; type: in vivo
Description: Mouse neonatal retina study. […] Eyes were collected on P5, and fixed with 4% PFA in PBS overnight. The dissected retinas were blocked with 10% goat serum in PBST for 3 hrs, then incubated overnight with primary antibodies. The primary cocktail included biotinylated isolectin B4 (25 μg/ml, Bandeiraea simplicifolia; Sigma), and one of the following: rabbit anti-mouse Ki67 (1:1, ready-to-use, clone Sp6, Lab Vision), or mouse Cy3-conjugated anti-alpha SMA (1:2000, Sigma-Aldrich), with 10% serum in PBLEC (1% Triton X-100, 0.1 mM CaCl2, 0.1 mM MgCl2, 0.1 mM MnCl2, in PBS pH6.8). Retinas were then washed in PBST, and incubated overnight with secondary antibody combination of Alexa Fluor® 488 streptavidin (1:200; Molecular Probes) and Cy3-anti-rabbit IgG (1:200; Jackson ImmunoResearch). After staining was completed, retinas were post fixed with 4% PFA in PBS. All overnight incubations were done at 4° C. Images of flat mounted retinas were captured by confocal fluorescence microscopy.
Early postnatal mouse retina develops a stereotypic vascular pattern in a well-defined sequence of events (Stone, J. & Dreher, Z. J Comp Neurol 255, 35-49 (1987); Gerhardt, H. et al. J Cell Biol 161, 1163-77 (2003); Fruttiger, M. Invest Opthalmol Vis Sci 43, 522-7 (2002)). […] Therefore, this hyperproliferative phenotype of retinal ECs upon DLL4 blockade in neonatal mice corroborated the in vitro findings.

[4] = biological target: T1, endogenously expressed DLL4 (Homo sapiens, UniProt Q9NR61); experiment: FACS analysis of HUVECs transfected with control or DLL4-specific siRNA; details: antibody 2 μg/ml, binding reduced with DLL4 siRNA
T1 construct: endogenous in cells; host or cells: HUVEC
Description: RNA interference. SMARTpool small interfering RNA (siRNA) duplexes targeting human DLL4 and Si Control Non-Target siRNA #2 were purchased from Dharmacon. Transfection of siRNR duplexes (50 nM) was done with HUVECs at 40% confluency using OptiMEM-1® and Lipfectamine™ 2000 (Invitrogen). FACS analysis was done 48 hr after siRNA transfection. The sequences of the 4 anti-DLL4 SMART pool siRNA were as follows:
FACS analysis of HUVECs transfected with control or DLL4-specific siRNA.

[5] = test system: human lung carcinoma Calu6 cells; experiment: Tumor model Calu6; type: in vivo, mouse; details: treatment initiated at ≧250 mm^3; 10 mg/kg i.p. twice weekly; two weeks of treatment
Description: as §1

[6] = biological target: DLL4 (Homo sapiens, UniProt Q9NR61); experiment: Notch ligand: Notch blocking ELISA (DLL4-AP / DLL4-His binding to coated rNotch1); set-up: amino acid 1-404 of DLL4 fused to human placenta alkaline phosphatase; made in house; host or cells: 293 cells, conditioned medium (DLL4-AP); details: purified DLL4-His, read-out: calculated IC50, blocking the binding of DLL4-His to coated rNotch1
Description: Conditioned medium containing DLL4-AP (amino acid 1-404 of DLL4 fused to human placenta alkaline phosphatase) was used in the assay. To prepare conditioned medium, 293 cells were transiently transfected with plasmid expressing DLL4-AP with Fugen6 reagent (Roche Molecular Biochemicals). Five days posttransfection, the conditioned medium was harvested, filtered and stored at 4° C. Purified antibodies titrated from 0.15 to 25 μg/ml were preincubated for 1 hr at room temperature with DLL4-AP conditioned medium at a dilution that conferred 50% maximally achievable binding to coated rrNotch1-Fc. The antibody/DLL4-AP mixture was then added to rrNotch1-Fc coated plate for 1 hr at room temperature, after which plates were washed several times in PBS. The bound DLL4-AP was detected using 1-Step PNPP (Pierce) as substrate and OD 405 nm absorbance measurement. […] The bound His-tagged ligands was detected with mouse anti-His mAb (1 μg/ml, Roche Molecular Biochemicals), biotinylated goat-anti-mouse (Jackson ImmunoResearch) and Streptavidin-AP (Jackson ImmunoResearch).

[7] = test system: mouse leukemia WEHI-3 cells; experiment: Tumor model WEHI3; type: in vivo; details: treatment initiated at ≧250 mm^3
Description: as §1

[8] = neonatal CD1 mice, 10 mg/kg i.p. on P1 and P3, eyes collected P5
[9] = neonatal mice, 10 mg/kg i.p. on P1 and P3

YW26.82: affinity matured anti-DLL4 monoclonal antibody; HVR-H1/H2/H3 SEQ ID NO:1, 8, 9; HVR-L1/L2/L3 SEQ ID NO:10, 11, 18
binding by FACS [1]: Significant binding was not detected | tumor growth, single agent [2]: inhibited tumor growth alone | Ki67 labeling in retinal ECs [3, 8]: significant increase of Ki67 labeling in ECs | accumulation of ECs in neonatal retina [3, 8]: massive accumulation of ECs | anti-α smooth muscle actin (ASMA) staining of retinal arteries [3, 9]: completely absent | pattern of radially alternating arteries and veins in retina [3, 9]: severely disrupted | binding to endogenously expressed DLL4 by FACS [4]: specifically bound to endogenously expressed DLL4 | tumor volume [5]: remained static | IC50 [6]: ~8 nM | tumor growth, single agent [7]: significant inhibition of tumor growth
